Measurements from Sander's compilation of Henry's law constants (doi:10.1016/j.atmosenv.2016.10.009).

Test: Henry solubility constant Hcp at 298.15 K (mol/(m3 Pa))
Conditions: reference: Odabasi and Adali (2016)

SMILES | Henry solubility constant Hcp
Clc1cc2c(Cl)c(Cl)c(Cl)c(Cl)c2c(Cl)c1Cl [1,2,3,4,5,6,7-heptachloronaphthalene] | 3.6
Clc1cc(Cl)c2c(Cl)c(Cl)c(Cl)c(Cl)c2c1Cl [1,2,3,4,5,6,8-heptachloronaphthalene] | 2.4
Clc1ccc2c(Cl)c(Cl)c(Cl)c(Cl)c2c1Cl [1,2,3,4,5,6-hexachloronaphthalene] | 0.78
Clc1c(Cl)c(Cl)c2c(Cl)ccc(Cl)c2c1Cl [1,2,3,4,5,8-hexachloronaphthalene] | 0.93
Clc1ccc2c(Cl)c(Cl)c(Cl)c(Cl)c2c1 [1,2,3,4,6-pentachloronaphthalene] | 0.078
Clc1cc2c(Cl)cc(Cl)c(Cl)c2c(Cl)c1Cl [1,2,3,5,7,8-hexachloronaphthalene] | 0.43
Clc1cc(Cl)c2c(Cl)c(Cl)cc(Cl)c2c1 [1,2,4,6,8-pentachloronaphthalene] | 0.1
Clc1ccc2c(Cl)c(Cl)ccc2c1 [1,2,6-trichloronaphthalene] | 0.17
Clc1cc(Cl)c2cccc(Cl)c2c1 [1,3,5-trichloronaphthalene] | 0.071
Clc1ccc(Cl)c2c(Cl)ccc(Cl)c12 [1,4,5,8-tetrachloronaphthalene] | 0.35
Clc1c(Cl)c(Cl)c2c(Cl)c(Cl)c(Cl)c(Cl)c2c1Cl [octachloronaphthalene] | 1.2

The remaining lines, values ahead:

Henry solubility constant Hcp | SMILES
0.17 | Clc1cc2c(Cl)ccc(Cl)c2c(Cl)c1Cl [1,2,3,5,8-pentachloronaphthalene]
0.14 | Clc1cc(Cl)c2c(Cl)c(Cl)ccc2c1Cl [1,2,4,5,6-pentachloronaphthalene]
0.089 | Clc1cc(Cl)c2c(Cl)cc(Cl)c(Cl)c2c1 [1,2,4,5,7-pentachloronaphthalene]
0.26 | Clc1cc(Cl)c2c(Cl)ccc(Cl)c2c1Cl [1,2,4,5,8-pentachloronaphthalene]
0.15 | Clc1cc(Cl)c2c(Cl)cccc2c1Cl [1,2,4,5-tetrachloronaphthalene]
0.17 | Clc1ccc2c(Cl)cc(Cl)c(Cl)c2c1Cl [1,2,4,7,8-pentachloronaphthalene]
0.11 | Clc1ccc2c(Cl)cccc2c1Cl [1,2,5-trichloronaphthalene]
0.22 | Clc1ccc(Cl)c2c(Cl)cccc12 [1,4,5-trichloronaphthalene]
